Measured values published in ChEMBL document CHEMBL3865826, “Synthesis and biological evaluation of a series of non-hemiacetal ester derivatives of artemisinin” (Eur J Med Chem, 2016).
pIC50: −log10 of the molar value.

What was measured:
[1] = Selectivity index, ratio of IC50 for human MCF7 cells to IC50 for chloroquine-resistant asexual erythrocyte stage form Plasmodium falciparum Dd2; format: functional
Plasmodium falciparum [2] = experiment: Antiplasmodial activity against chloroquine-resistant asexual erythrocyte stage form Plasmodium falciparum Dd2 measured after 48 hrs by pLDH assay; format: functional; conditions: Dd2, 48 h
[3] = Growth inhibition of human TK10 cells measured after 24 hrs by SRB assay; format: functional, cell-based; conditions: TK-10, 24 h
[4] = Selectivity index, ratio of IC50 for CHO cells to IC50 for chloroquine-sensitive asexual erythrocyte stage form Plasmodium falciparum NF54; format: toxicity, cell-based; conditions: hamster, read-out: Ratio IC50
Plasmodium falciparum [5] = experiment: Antiplasmodial activity against chloroquine-sensitive asexual erythrocyte stage form Plasmodium falciparum NF54 measured after 48 hrs by pLDH assay; format: functional; conditions: NF54, 48 h
[6] = Selectivity index, ratio of IC50 for human WI38 cells to IC50 for chloroquine-sensitive asexual erythrocyte stage form Plasmodium falciparum NF54; format: toxicity, cell-based, WI-38; conditions: read-out: Ratio IC50
[7] = Resistance index, ratio of IC50 for chloroquine-resistant asexual erythrocyte stage form Plasmodium falciparum Dd2 to IC50 for chloroquine-sensitive asexual erythrocyte stage form Plasmodium falciparum NF54; format: functional
[8] = Cytotoxicity against CHO cells assessed as reduction in cell viability measured after 48 hrs by MTT assay; format: toxicity, cell-based, Cricetulus griseus; conditions: Chinese hamster
[9] = Growth inhibition of human MCF7 cells measured after 24 hrs by SRB assay; format: functional, cell-based; conditions: MCF7, 24 h
[10] = Cytotoxicity against human WI38 cells assessed as reduction in cell viability measured after 48 hrs by SRB assay; format: toxicity, cell-based, WI-38
CHO [11] = experiment: Selectivity index, ratio of IC50 for CHO cells to IC50 for human MCF7 cells; format: functional
MCF7 = experiment: Selectivity index, ratio of IC50 for human WI38 cells to IC50 for human MCF7 cells; format: functional
[12] = Growth inhibition of human UACC62 cells measured after 24 hrs by SRB assay; format: functional, cell-based; conditions: UACC-62, 24 h
[13] = Selectivity index, ratio of IC50 for human UACC62 cells to IC50 for chloroquine-resistant asexual erythrocyte stage form Plasmodium falciparum Dd2; format: functional, UACC-62
[14] = Thermal stability of the compound assessed as melting point by thermogravimetric analysis; format: physicochemical
[15] = Thermal stability of the compound assessed as onset of decomposition temperature by thermogravimetric analysis; format: physicochemical
[16] = Selectivity index, ratio of IC50 for human TK10 cells to IC50 for chloroquine-resistant asexual erythrocyte stage form Plasmodium falciparum Dd2; format: functional, TK-10
WI-38 = experiment: Selectivity index, ratio of IC50 for human WI38 cells to IC50 for human TK10 cells; format: functional
UACC-62 = experiment: Selectivity index, ratio of IC50 for human WI38 cells to IC50 for human UACC62 cells; format: functional
CHO [17] = experiment: Selectivity index, ratio of IC50 for CHO cells to IC50 for human UACC62 cells; format: functional

SMILES | Ratio IC50 [1] | pIC50 (Plasmodium falciparum [2]) | pIC50 [3] | selectivity ratio [4] | pIC50 (Plasmodium falciparum [5]) | selectivity ratio [6] | Ratio IC50 [7] | IC50 at 48 h [8] [µM] | pIC50 [9] | IC50 at 48 h [10] [µM] | Ratio IC50 (CHO [11]) | Ratio IC50 (MCF7) | pIC50 [12] | Ratio IC50 [13] | Tm [14] [°C] | T [15] [°C] | Ratio IC50 [16] | Ratio IC50 (WI-38) | Ratio IC50 (UACC-62) | Ratio IC50 (CHO [17])
CCCC(=O)OCC1(C)O[C@@H]2O[C@]3(C)CC[C@H]4[C@H](C)CC[C@@H]1[C@@]24OO3 (stereo partly specified) | 7768 | 8.16 | < 4.00 | > 5920 | 7.77 | > 5920 | 0.4 | > 100 | 4.27 | > 100 | >2 | >2 | < 4.00 | – | – | – | – | – | – | –
C[C@@H]1CC[C@H]2C(C)(COC(=O)c3cc4ccccc4o3)O[C@@H]3O[C@]4(C)CC[C@@H]1[C@]32OO4 (stereo partly specified) | 2563 | 8.15 | < 4.00 | > 6850 | 7.84 | > 6850 | 0.5 | > 100 | 4.74 | > 100 | >6 | >6 | 4.10 | 11085 | 172.1 | – | – | – | – | –
C[C@@H]1CC[C@H]2C(C)(CO)O[C@@H]3O[C@]4(C)CC[C@@H]1[C@]32OO4 (stereo partly specified) | – | 8.13 | < 4.00 | > 24400 | 8.39 | > 24400 | 1.8 | > 100 | < 4.00 | > 100 | – | – | < 4.00 | – | 160.9 | 144 | – | – | – | –
Cc1ccsc1C(=O)OCC1(C)O[C@@H]2O[C@]3(C)CC[C@H]4[C@H](C)CC[C@@H]1[C@@]24OO3 (stereo partly specified) | 958 | 8.15 | < 4.00 | > 13900 | 8.14 | > 13900 | 1 | > 100 | 5.17 | > 100 | >15 | >15 | 4.86 | 1958 | – | – | – | – | – | –
C[C@@H]1CC[C@H]2C(C)(C=O)O[C@@H]3O[C@]4(C)CC[C@@H]1[C@]32OO4 (stereo partly specified) | 1560 | 8.39 | 4.44 | > 14500 | 8.16 | > 14500 | 0.6 | > 100 | 5.19 | > 100 | – | 6 | 5.11 | 1900 | 174.9 | – | 8927 | >3 | >13 | –
CC(=O)Oc1ccccc1C(=O)OCC1(C)O[C@@H]2O[C@]3(C)CC[C@H]4[C@H](C)CC[C@@H]1[C@@]24OO3 (stereo partly specified) | 2442 | 8.37 | < 4.00 | > 37000 | 8.57 | > 37000 | 1.6 | > 100 | 4.98 | > 100 | >10 | >10 | 4.72 | 4419 | 175.2 | – | – | – | – | –
CCCCCC(=O)OCC1(C)O[C@@H]2O[C@]3(C)CC[C@H]4[C@H](C)CC[C@@H]1[C@@]24OO3 (stereo partly specified) | 1100 | 7.36 | < 4.00 | > 1660 | 7.22 | > 1660 | 0.7 | > 100 | 4.32 | > 100 | >2 | >2 | < 4.00 | – | – | – | – | – | – | –
C[C@@H]1CC[C@H]2C(C)(COC(=O)CCc3ccccc3)O[C@@H]3O[C@]4(C)CC[C@@H]1[C@]32OO4 (stereo partly specified) | 2974 | 7.94 | < 4.00 | > 13500 | 8.13 | > 13500 | 1.6 | > 100 | 4.47 | > 100 | >3 | >3 | 4.16 | 6026 | – | – | – | – | >1.4 | >1.4
C[C@@H]1CC[C@H]2C(C)(COC(=O)c3ccco3)O[C@@H]3O[C@]4(C)CC[C@@H]1[C@]32OO4 (stereo partly specified) | – | 8.43 | < 4.00 | > 10900 | 8.04 | > 10900 | 0.4 | > 100 | < 4.00 | > 100 | – | – | < 4.00 | – | 177.3 | – | – | – | – | –
C[C@@H]1CC[C@H]2C(C)(COC(=O)c3cccs3)O[C@@H]3O[C@]4(C)CC[C@@H]1[C@]32OO4 (stereo partly specified) | 7898 | 8.23 | < 4.00 | > 20800 | 8.32 | > 20800 | 1.2 | > 100 | 4.33 | > 100 | >2 | >2 | 4.41 | 6661 | 170.8 | – | – | – | – | –
C=C1C(=O)O[C@@H]2C3O[C@]3(C)CC/C=C(\C)CC[C@@H]12 (stereo partly specified) | – | – | 5.19 | – | – | – | – | – | 5.24 | – | – | – | 4.82 | – | – | – | – | – | – | –
CO[C@H]1O[C@@H]2O[C@@]3(C)CC[C@H]4[C@H](C)CC[C@@H]([C@H]1C)[C@@]24OO3 [ARTEMETHER] | – | 8.64 | – | > 26300 | 8.42 | – | 0.6 | > 100 | – | – | – | – | – | – | 186 | – | – | – | – | –
C[C@H]1[C@@H](O)O[C@@H]2O[C@@]3(C)CC[C@H]4[C@H](C)CC[C@@H]1[C@@]24OO3 [ARTENIMOL] | – | 8.92 | – | > 45500 | 8.66 | – | 0.6 | > 100 | – | – | – | – | – | – | 160 | – | – | – | – | –
C[C@H]1[C@H](OC(=O)CCC(=O)O)O[C@@H]2O[C@@]3(C)CC[C@H]4[C@H](C)CC[C@@H]1[C@@]24OO3 [ARTESUNATE] | – | 8.12 | – | > 12500 | 8.10 | > 12500 | 0.9 | > 100 | – | > 100 | – | – | – | – | 134.7 | – | – | – | – | –
CC[C@H]1CN2CCc3cc(OC)c(OC)cc3[C@@H]2C[C@@H]1C[C@H]1NCCc2cc(OC)c(OC)cc21 [EMETINE] | – | – | – | – | – | – | – | 0.29 | – | 0.05 | – | – | – | – | – | – | – | – | – | –
